Source: US8906852B2 (MethylGene Inc., priority 2010, dated 2014)

The compounds below were run against T1, VEGFR/KDR (Homo sapiens, UniProt P35968) (assay: VEGFR/KDR kinase inhibition, DELFIA assay). Settings: ATP 0.6 uM (2x Km), enzyme 5 nM.
T1 construct: made in house; host or cells: Sf9 cells (Spodoptera frugiperda), baculovirus
Format: biochemical
Procedure: Inhibition of VEGFR/KDR is measured in a DELFIA™ assay (Perkin Elmer). The substrate poly(Glu4, Tyr) is immobilized onto black high-binding polystyrene 96-well plates. The coated plates are washed and stored at 4° C. During the assay, the enzyme is pre-incubated with inhibitor and Mg-ATP on ice in polypropylene 96-well plates for 4 minutes, and then transferred to the coated plates. The subsequent kinase reaction takes place at 30° C. for 10-30 minutes. ATP concentrations in the assay are 0.6 uM for VEGFR/KDR (2× the Km). Enzyme concentration is 5 nM. After incubation, the kinase reactions are quenched with EDTA and the plates are washed. Phosphorylated product is detected by incubation with Europium-labeled anti-phosphotyrosine MoAb. After washing the plates, bound MoAb is detected by time-resolved fluorescence in a Gemini SpectraMax reader (Molecular Devices). Compounds are evaluated over a range of concentrations, and IC50 values (concentration of compounds giving 50% inhibition of enzymatic activity) are determined.

T1 sequence (P35968 806-1356): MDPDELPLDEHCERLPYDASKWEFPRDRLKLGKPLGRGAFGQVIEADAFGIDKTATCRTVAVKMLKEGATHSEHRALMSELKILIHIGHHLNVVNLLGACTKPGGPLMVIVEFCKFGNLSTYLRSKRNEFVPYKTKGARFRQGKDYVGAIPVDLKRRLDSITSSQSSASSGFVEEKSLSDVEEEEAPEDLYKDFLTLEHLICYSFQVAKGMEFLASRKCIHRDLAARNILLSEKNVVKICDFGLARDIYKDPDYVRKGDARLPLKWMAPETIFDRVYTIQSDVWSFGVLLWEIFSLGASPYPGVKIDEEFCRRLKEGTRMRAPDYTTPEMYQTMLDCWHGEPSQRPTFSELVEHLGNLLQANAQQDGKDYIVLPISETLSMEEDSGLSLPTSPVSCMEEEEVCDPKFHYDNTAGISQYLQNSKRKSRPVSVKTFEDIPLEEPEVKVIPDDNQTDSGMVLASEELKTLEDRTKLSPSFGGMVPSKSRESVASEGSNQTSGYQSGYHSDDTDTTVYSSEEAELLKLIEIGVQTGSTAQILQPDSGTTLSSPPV

IC50, < 50 nM:
CC(=O)N[C@H]1CCN(Cc2ccc(-c3cc4nccc(Oc5ccc(NC(=O)NC6CC6)cc5F)c4s3)nc2)C1=O [Compound 44, (S)-N-(l-((6-(7-(4-(3-cyclopropylureido)-2-fluorophenoxy)thieno[3,2-b]pyridin-2-yl)pyridin-3-yl)methyl)-2-oxopyrrolidin-3-yl)acetamide]
COCCN(CCc1ccc(-c2cc3nccc(Oc4ccc(NC(=O)NC5CC5)cc4F)c3s2)nc1)C(=O)CO [Compound 46, N-(2-(6-(7-(4-(3-cyclopropylureido)-2-fluorophenoxy)thieno[3,2-b]pyridin-2-yl)pyridin-3-yl)ethyl)-2-hydroxy-N-(2-methoxyethyl)-acetamide]
CC(C)(C)OC(=O)N1CCN(Cc2ccc(-c3cc4nccc(Oc5ccc(NC(=O)NC6CC6)cc5F)c4s3)nc2)CC1 [Compound 48, tert-butyl 4-((6-(7-(4-(3-cyclopropylureido)-2-fluorophenoxy)thieno[3,2-b]-pyridin-2-yl)pyridin-3-yl)methyl)piperazine-1-carboxylate]
COCCN(CCOC)Cc1ccc(-c2cc3nccc(Oc4ccc(NC(=O)NC5CC5)cc4F)c3s2)nc1 [Compound 50, 1-(4-(2-(5-((bis(2-methoxyethyl)amino)methyl)pyridin-2-yl)thieno[3,2-b]-pyridin-7-yloxy)-3-fluorophenyl)-3-cyclopropylurea]
CN(CCO)Cc1ccc(-c2cc3nccc(Oc4ccc(NC(=O)NC5CC5)cc4F)c3s2)nc1 [Compound 50-A]
O=C(Nc1ccc(Oc2ccnc3cc(-c4ccc(CN5CC[C@H](O)C5)cn4)sc23)c(F)c1)NC1CC1 [Compound 52, (S)-1-cyclopropyl-3-(3-fluoro-4-(2-(5-((3-hydroxypyrrolidin-1-yl)methyl)pyridin-2-yl)thieno[3,2-b]-pyridin-7-yloxy)phenyl)urea]
O=C(Nc1ccc(Oc2ccnc3cc(-c4ccc(CN5CC[C@@H](O)C5)cn4)sc23)c(F)c1)NC1CC1 [Compound 53, (R)-1-cyclopropyl-3-(3-fluoro-4-(2-(5-((3-hydroxypyrrolidin-1-yl)methyl)pyridin-2-yl)thieno[3,2-b]-pyridin-7-yloxy)phenyl)urea]
CN(C)[C@H]1CCN(Cc2ccc(-c3cc4nccc(Oc5ccc(NC(=O)NC6CC6)cc5F)c4s3)nc2)C1 [Compound 54, (S)-1-cyclopropyl-3-(4-(2-(5-((3-(dimethylamino)pyrrolidin-1-yl)methyl)pyridin-2-yl)thieno[3,2-b]pyridin-7-yloxy)-3-fluorophenyl)urea]
O=C(Nc1ccc(Oc2ccnc3cc(-c4ccc(CN5CCN(CCN6CCOCC6)CC5)cn4)sc23)c(F)c1)NC1CC1 [Compound 54-A, 1-cyclopropyl-3-(3-fluoro-4-(2-(5-((4-(2-morpholinoethyl)piperazin-1-yl)methyl)pyridin-2-yl)thieno[3,2-b]pyridin-7-yloxy)phenyl)urea]
CN1CCCN(Cc2ccc(-c3cc4nccc(Oc5ccc(NC(=O)NC6CC6)cc5F)c4s3)nc2)CC1 [Compound 54-B, 1-cyclopropyl-3-(3-fluoro-4-(2-(5-((4-methyl-1,4-diazepan-1-yl)methyl)pyridin-2-yl)thieno[3,2-b]pyridin-7-yloxy)phenyl)urea]
CN1CCC(CN2CCN(Cc3ccc(-c4cc5nccc(Oc6ccc(NC(=O)NC7CC7)cc6F)c5s4)nc3)CC2)CC1 [Compound 54-D, 1-cyclopropyl-3-(3-fluoro-4-(2-(5-((4-((1-methylpiperidin-4-yl)methyl)piperazin-1-yl)methyl)pyridin-2-yl)thieno[3,2-b]pyridin-7-yloxy)phenyl)urea]
CC(C)N1CCN(Cc2ccc(-c3cc4nccc(Oc5ccc(NC(=O)NC6CC6)cc5F)c4s3)nc2)CC1 [Compound 54-E, 1-cyclopropyl-3-(3-fluoro-4-(2-(5-((4-isopropylpiperazin-1-yl)methyl)pyridin-2-yl)thieno[3,2-b]pyridin-7-yloxy)phenyl)urea]
CS(=O)(=O)N1CCN(Cc2ccc(-c3cc4nccc(Oc5ccc(NC(=O)NC6CC6)cc5F)c4s3)nc2)CC1 [Compound 54-F, 1-cyclopropyl-3-(3-fluoro-4-(2-(5-((4-(methylsulfonyl)piperazin-l-yl)methyl)pyridin-2-yl)thieno[3,2-b]pyridin-7-yloxy)phenyl)urea]
O=C(Nc1ccc(Oc2ccnc3cc(-c4ccc(CN5CCN(CCn6ccnc6)CC5)cn4)sc23)c(F)c1)NC1CC1 [Compound 54-G, 1-(4-(2-(5-((4-(2-(1H-imidazol-1-yl)ethyl)piperazin-l-yl)methyl)pyridin-2-yl)thieno[3,2-b]pyridin-7-yloxy)-3-fIuorophenyl)-3-cyclopropylurea]
COCCN1CCN(Cc2ccc(-c3cc4nccc(Oc5ccc(NC(=O)NC6CC6)cc5F)c4s3)nc2)CC1 [Compound 56]
N#CCCN1CCN(Cc2ccc(-c3cc4nccc(Oc5ccc(NC(=O)NC6CC6)cc5F)c4s3)nc2)CC1 [Compound 57, 1-(4-(2-(5-((4-(2-cyanoethyl)piperazin-1-yl)methyl)pyridin-2-yl)thieno[3,2-b]-pyridin-7-yloxy)-3-fluorophcnyl)-3-cyclopropylurea]
CCOC(=O)C1CCN(Cc2ccc(-c3cc4nccc(Oc5ccc(NC(=O)NC6CC6)cc5F)c4s3)nc2)CC1 [Compound 58, ethyl 1-((6-(7-(4-(3-cyclopropylureido)-2-fluorophenoxy)-thieno[3,2-b]pyridin-2-yl)pyridin-3-yl)methyl)piperidine-4-carboxylate]
CCOC(=O)CC1CCN(Cc2ccc(-c3cc4nccc(Oc5ccc(NC(=O)NC6CC6)cc5F)c4s3)nc2)CC1 [Compound 59, ethyl 2-(1-((6-(7-(4-(3-cyclopropylureido)-2-fluorophenoxy)-thieno[3,2-b]pyridin-2-yl)pyridin-3-yl)methyl)piperidin-4-yl)acelate]
CCOC(=O)CN1CCN(Cc2ccc(-c3cc4nccc(Oc5ccc(NC(=O)NC6CC6)cc5F)c4s3)nc2)CC1 [Compound 60, ethyl 2-(4-((6-(7-(4-(3-cyclopropylureido)-2-fluorophenoxy)-thieno[3,2-b]pyridin-2-yl)pyridin-3-yl)methyl)piperazin-1-yl)acetate]
O=C(O)CN1CCN(Cc2ccc(-c3cc4nccc(Oc5ccc(NC(=O)NC6CC6)cc5F)c4s3)nc2)CC1 [Compound 61, 2-(4-((6-(7-(4-(3-cyclopropylureido)-2-fluorophenoxy)thieno[3,2-b]pyridin-2-yl)pyridin-3-yl)methyl)piperazin-1-yl)acetic acid]
O=C(Nc1ccc(Oc2ccnc3cc(-c4ccc(CN5CCC(C(=O)O)CC5)cn4)sc23)c(F)c1)NC1CC1 [Compound 62, l-((6-(7-(4-(3-cyclopropylureido)-2-fluorophenoxy)thieno[3,2-b]pyridin-2-yl)pyridin-3-yl)methyl)piperidine-4-carboxylic acid]
O=C(O)CC1CCN(Cc2ccc(-c3cc4nccc(Oc5ccc(NC(=O)NC6CC6)cc5F)c4s3)nc2)CC1 [Compound 63, 2-(l-((6-(7-(4-(3-cyclopropylureido)-2-fluorophenoxy)thieno[3,2-b]pyridin-2-yl)pyridin-3-yl)methyl)piperidin-4-yl)acetic acid]
CC(=O)N1CCN(Cc2ccc(-c3cc4nccc(Oc5ccc(NC(=O)NC6CC6)cc5F)c4s3)nc2)CC1 [Compound 66, 1-(4-(2-(5-((4-acetylpiperazin-1-yl)methyl)pyridin-2-yl)thieno[3,2-b]pyridin-7-yloxy)-3-fluorophenyl)-3-cyclopropylurea]
O=C1CN(Cc2ccc(-c3cc4nccc(Oc5ccc(NC(=O)NC6CC6)cc5F)c4s3)nc2)CCN1 [Compound 67, l-cyclopropyl-3-(3-fluoro-4-(2-(5-((3-oxopiperazin-1-yl)methyl)pyridin-2-yl)thieno[3,2-b]-pyridin-7-yloxy)phenyl)urea]
CCOC(=O)CCN1CCN(Cc2ccc(-c3cc4nccc(Oc5ccc(NC(=O)NC6CC6)cc5F)c4s3)nc2)CC1 [Compound 68, ethyl 3-(4-((6-(7-(4-(3-cyclopropyl-ureido)-2-fluorophenoxy)-thieno[3,2-b]-pyridin-2-yl)pyridin-3-yl)methyl)piperazin-1-yl)propanoate]
O=C(O)CCN1CCN(Cc2ccc(-c3cc4nccc(Oc5ccc(NC(=O)NC6CC6)cc5F)c4s3)nc2)CC1 [Compound 70, 3-(4-((6-(7-(4-(3-cyclopropylureido)-2-fluorophenoxy)thieno[3,2-b]pyridin-2-yl)pyridin-3-yl)methyl)piperazin-1-yl)propanoic acid]
O=C(Nc1ccc(Oc2ccnc3cc(-c4ccc(CN5CCNCC5=O)cn4)sc23)c(F)c1)NC1CC1 [Compound 72]
O=C(Nc1ccc(Oc2ccnc3cc(-c4ccc(CN5C[C@@H]6C[C@H]5CN6)cn4)sc23)c(F)c1)NC1CC1 [Compound 73]
